Structures can show the parent of a compound that is named as a salt.
Legend:
[1] = biological target: T1, TAS1R1-372A and TAS1R3-757R (Homo sapiens, UniProt Q7RTX0+Q7RTX1, C757R); assay: Ca2+ imaging (bath perfusion) in HEK cells transfected with TAS1R1-372A, TAS1R3-757R and Gα16-i3; assay type: cell-based
T1 construct: expressed in transfected cells; host or cells: HEK293
T1 sequence (Q7RTX1 21-841): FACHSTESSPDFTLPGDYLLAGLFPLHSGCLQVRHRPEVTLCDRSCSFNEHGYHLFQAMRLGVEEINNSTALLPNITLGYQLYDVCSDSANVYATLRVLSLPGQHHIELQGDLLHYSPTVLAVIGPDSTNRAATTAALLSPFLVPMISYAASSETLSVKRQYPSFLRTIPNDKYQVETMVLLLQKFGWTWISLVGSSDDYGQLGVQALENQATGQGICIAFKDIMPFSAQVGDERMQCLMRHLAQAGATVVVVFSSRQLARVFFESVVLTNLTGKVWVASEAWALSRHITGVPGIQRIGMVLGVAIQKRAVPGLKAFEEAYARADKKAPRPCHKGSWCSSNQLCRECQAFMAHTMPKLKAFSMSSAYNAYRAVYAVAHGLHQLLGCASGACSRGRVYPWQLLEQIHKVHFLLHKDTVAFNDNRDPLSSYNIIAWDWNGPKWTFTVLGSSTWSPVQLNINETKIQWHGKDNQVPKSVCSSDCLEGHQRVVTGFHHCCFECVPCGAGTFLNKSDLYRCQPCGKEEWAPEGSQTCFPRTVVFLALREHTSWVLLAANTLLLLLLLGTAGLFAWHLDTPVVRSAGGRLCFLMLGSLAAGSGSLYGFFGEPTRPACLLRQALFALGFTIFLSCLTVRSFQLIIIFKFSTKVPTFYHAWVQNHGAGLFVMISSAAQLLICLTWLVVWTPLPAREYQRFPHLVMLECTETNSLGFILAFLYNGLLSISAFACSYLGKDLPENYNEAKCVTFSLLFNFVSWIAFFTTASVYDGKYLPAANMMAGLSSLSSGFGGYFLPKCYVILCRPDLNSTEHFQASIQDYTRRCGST
T1 sequence (Q7RTX0 21-852 C757R): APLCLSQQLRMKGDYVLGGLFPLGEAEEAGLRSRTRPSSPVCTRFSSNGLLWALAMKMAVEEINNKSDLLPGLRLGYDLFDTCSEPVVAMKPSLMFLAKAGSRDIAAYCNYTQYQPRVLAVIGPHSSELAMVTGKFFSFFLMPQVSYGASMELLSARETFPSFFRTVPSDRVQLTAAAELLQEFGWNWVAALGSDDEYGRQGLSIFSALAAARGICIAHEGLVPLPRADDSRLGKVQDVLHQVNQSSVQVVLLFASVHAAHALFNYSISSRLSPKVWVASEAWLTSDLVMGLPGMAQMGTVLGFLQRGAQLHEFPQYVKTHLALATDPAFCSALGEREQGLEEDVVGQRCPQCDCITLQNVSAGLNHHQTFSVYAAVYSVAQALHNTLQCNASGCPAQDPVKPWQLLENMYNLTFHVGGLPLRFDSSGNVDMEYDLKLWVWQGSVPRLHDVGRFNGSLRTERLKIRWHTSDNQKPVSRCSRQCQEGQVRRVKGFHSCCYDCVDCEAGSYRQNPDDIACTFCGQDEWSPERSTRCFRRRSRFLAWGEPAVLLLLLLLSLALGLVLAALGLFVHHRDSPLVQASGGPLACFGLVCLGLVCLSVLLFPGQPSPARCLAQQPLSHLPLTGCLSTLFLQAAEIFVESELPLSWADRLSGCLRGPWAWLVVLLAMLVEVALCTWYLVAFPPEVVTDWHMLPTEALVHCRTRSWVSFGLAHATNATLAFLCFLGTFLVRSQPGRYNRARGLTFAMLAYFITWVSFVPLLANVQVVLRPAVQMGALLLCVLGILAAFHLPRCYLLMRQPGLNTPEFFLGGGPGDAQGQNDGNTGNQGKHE
Description: HEK293 cells were cultured at 37°C under a humidified atmosphere containing 5% CO2 in Dulbecco's modified Eagle's medium supplemented with 10% fetal bovine serum. To obtain reproducible Ca^2+ responses, cells were split every 2 days before cells become confluent. Cells were discarded after 2 months of passages and new cells were prepared from frozen-stock. For calcium imaging experiments, cells were seeded onto a 35 mm recording chamber or poly-D-lysine coated 96-well black-wall, clear-bottom recording plates. After 24 hrs at 37°C, confluent cells (60∼70%) were washed in OptiMEM medium supplemented with GlutaMAX-I (invitrogen) and plasmid DNAs were transiently cotransfected into HEK293 cells using Lipofectamine2000 regent (invitrogen) (2.0 µl per 1.0 µg DNA). TAS1Rs (or their mutants) and Gαl6-i3 were transfected using 1.5 and 1.0 µg of plasmid for 35 mm recording chambers, 0.09 and 0.06 µg of plasmid per well for 96-well plates, respectively. […] Immuno staining and Ca^2+ imaging assays were performed 36∼40 hrs after transfection.
Two Ca^2+ imaging systems were used. A bath perfusion system was used for kinetics of activation. Transfected cells in 35 mm recording chambers were washed in Hank's balanced salt solution (HBSS) containing 10 mM HEPES, pH 7.4, and loaded with 3.0 µM Fluo-4 acetoxymethyl ester (invitrogen) for 1.0 hr at 37°C. The dye-loaded cells were subjected to Ca^2+ imaging. Taste solutions diluted in HBSS were applied sequentially to the cells for 30 s with a peristaltic pump at a flow rate of 1.5 ml/min, and fluorescence images were obtained using a S Fluor ×20/0.75 objective lens (Nikon) via a cooled-CCD camera (C6790, Hamamatsu Photonics) fitted to a TE300 microscope (Nikon). Acquisition and analysis of these fluorescence images used AquaCosmos software (v. 1.3, Hamamatsu Photonics). A 3 min interval was left between each tastant application to ensure that the cells were not desensitized as a result of the previous application of tastants. Responses were measured from 30 individual responding cells. […] Isoproterenol (ISO, 10 µM) was used as positive control, which stimulates endogenous β-adrenergic receptors, providing that the Gα16-dependent signal transduction cascade was functional.

[2] = system: 254 Japanese subjects; assay: Taste recognition threshold measurement (staircase method); assay type: in vivo, human; details: other basic taste stimuli, Figure S1
Text: A total of 254 healthy, non-obese, non-diabetic Japanese volunteers [male/female: 141/113, age: 20–36, body mass index (BMI); 16.5–24.8] participated in this study. The purpose of the study as well as the methods and procedure were explained to the participants and the patients in this manuscript have given written informed consent. All protocols were approved by the local ethics committee at Kyushu University. Subjects were asked to refrain from consuming alcohol the day before testing, caffeine on the day of testing, and food during the experimentation period. The inclusion criteria were satisfactory state of oral hygiene, non-smoking, regular work, sleep, and meal schedules.
As MSG contains sodium, great care was taken to compare individual sensitivities to MSG relative to NaCl. […] The differences in concentrations in the present study were in 0.3 log steps, which mean step-wise increases in concentration by a factor of 2.0. All solutions were made up in distilled water and used at room temperature. The testing procedure was the staircase-method modified from Pasquet et al.. Each subject evaluated all 7 tastants. The seven series of solutions were presented one after another within a single section. Within each series, the solutions with each 2.0 ml were applied to the whole tongue of each subject with a pipet in order of ascending concentrations. The subjects were asked not to swallow test solutions and rinse their mouth between two solutions with distilled water. The subject was requested to correctly name the taste quality in each series. Once the taste of two successive concentrations was recognized successfully, the subject was given the previous unrecognized concentration (first reversal). The points at which concentration sequence changed from a decrease to an increase or vice versa were designated “reversals”. The procedure was terminated after five reversals, and the threshold was calculated as the mean of the concentration values of the last four reversals.
Student's t-test was used for detection of differences in the mean recognition thresholds between males and females. The χ^2 test was used for checking Hardy-Weinberg Equilibrium (HWE) for the genotype frequencies in samples to control genotyping errors, for detection of differences in genotype and allele frequencies between high and low taste recognition threshold groups. Yates'χ^2 test was used when the number was less than 10. The mean values (the center±S.E. of gaussian curve on X-axis) in the distribution of recognition thresholds defined by TAS1R1/TAS1R3 haplotypes (TAS1R1-372A/TAS1R3-757R homozygotes, TAS1R1-372T/TAS1R3-757R homozygotes, homo- and heterozygotes containing TAS1R3-757C) were calculated using gauss fit function of Origin 5.0 (OriginLab Corp). For Ca^2+ imaging analysis, data were normalized to response to 10 µM ISO, and mean values (±S.E.) were calculated from 10∼18 independent analyses. EC50 values were calculated from individual cumulative concentration-response data using sigmoid fit functions of Origin 5.0. One factor ANOVAs were conducted for detection of differences in the distributions of recognition thresholds for umami substances among 3 groups defined by TAS1R1/TAS1R3 haplotypes, and in the responses to 5, 20 and 50 mM MSG or 0.3, 5 and 50 mM M+I among TAS1R1/TAS1R3 variants in Ca^2+ imaging analysis. When the ANOVA was significant, post-hoc Student's t-test or Fisher's PLSD test was performed to compare individual means at each umami compound or concentration. Significance level was 0.05.

[3] = system: TAS1R1/TAS1R3 variants; assay: Ca2+ imaging (FlexStation II), comparison across receptor variants (AR, TR, AC, TC); assay type: cell-based, human; details: lactisole 5 mM; 20 mM MSG+0.5 mM IMP; Figure S5
Text: Intronless human TAS1Rs and Gαl6 expression constructs were generated in the pEF-DEST51 Gateway vector (Invitrogen) by genomic DNA-based methods. To subclone each gene into the vector, a Kozak cassette was introduced at the 5′ end before the start codon. Gαl6 chimeras were generated by PCR with mutagenic primers. The carboxyl-terminal tail of Gαl6, five-residue (EINLL) was replaced by its counterpart from Gαi3 (ECGLY; Gα16-i3), Gαgust (DCGLF; Gα16-gust), and Gα16-gust44 was generated as described. The integrity of all DNA constructs was confirmed by DNA sequencing. Point mutations in TAS1Rs were made using the same overlapping PCR strategy with mutagenic primers.
HEK293 cells were cultured at 37°C under a humidified atmosphere containing 5% CO2 in Dulbecco's modified Eagle's medium supplemented with 10% fetal bovine serum. To obtain reproducible Ca^2+ responses, cells were split every 2 days before cells become confluent. Cells were discarded after 2 months of passages and new cells were prepared from frozen-stock. For calcium imaging experiments, cells were seeded onto a 35 mm recording chamber or poly-D-lysine coated 96-well black-wall, clear-bottom recording plates. After 24 hrs at 37°C, confluent cells (60∼70%) were washed in OptiMEM medium supplemented with GlutaMAX-I (invitrogen) and plasmid DNAs were transiently cotransfected into HEK293 cells using Lipofectamine2000 regent (invitrogen) (2.0 µl per 1.0 µg DNA). […]
Student's t-test was used for detection of differences in the mean recognition thresholds between males and females. […] The mean values (the center±S.E. of gaussian curve on X-axis) in the distribution of recognition thresholds defined by TAS1R1/TAS1R3 haplotypes (TAS1R1-372A/TAS1R3-757R homozygotes, TAS1R1-372T/TAS1R3-757R homozygotes, homo- and heterozygotes containing TAS1R3-757C) were calculated using gauss fit function of Origin 5.0 (OriginLab Corp). For Ca^2+ imaging analysis, data were normalized to response to 10 µM ISO, and mean values (±S.E.) were calculated from 10∼18 independent analyses.

Row | Ca2+ response of transfected HEK cells ([1]; 50 mM) | SMILES | differences in distributions of recognition thresholds among TR, AR and TAS1R3-757C groups [2] | further results
1 | – | O=C1NS(=O)(=O)c2ccccc21 [saccharin] | – | Ca2+ response of transfected HEK cells ([1]; 1 mM (data not shown)): did not respond
2 | did not respond | OC[C@H]1O[C@@](CO)(O[C@H]2O[C@H](CO)[C@@H](O)[C@H](O)[C@H]2O)[C@@H](O)[C@@H]1O [sucrose] | no such differences | –
3 | – | Cl [HCl] | no such differences | –
4 | did not respond | OC[C@H]1OC(O)[C@H](O)[C@@H](O)[C@@H]1O (stereo partly shown) [glucose] | – | –
5 | – | COc1ccc(OC(C)C(=O)O)cc1 (stereo not shown) [lactisole] | – | inhibition effect on the responses of TAS1R1/TAS1R3 variants [3]: clearly observed
6 | – | NC(=S)Nc1ccccc1 [PTC, phenylthiocarbamide] | no such differences | –
7 | – | C[C@H](NC(=NCC(=O)O)Nc1ccc(C#N)cc1)c1ccccc1 [SC45647] | – | Ca2+ response of transfected HEK cells ([1]; 0.3 mM (data not shown)): did not respond

Row | SMILES | Ca2+ response of transfected HEK cells ([1]; 50 mM) | differences in distributions of recognition thresholds among TR, AR and TAS1R3-757C groups [2] | further results
8 | [Cl-].[Na+] [NaCl] | did not respond | no such differences | –
